Results published in patent US20190284192A1, “NITROGENOUS MACROCYCLIC COMPOUND, PREPARATION METHOD THEREFOR, PHARMACEUTICAL COMPOSITION AND APPLICATION THEREOF” (LUOXIN PHARMACEUTICAL (SHANGHAI) CO., LTD., priority 2016, published 2019).
pIC50: −log10 of the molar value. Read-outs that look alike come from different tables or passages of the source. One block for each compound: values may come before it.

Columns and labels:
BRD4 (BD2) = target: T1, BRD4 (BD2) (Homo sapiens, UniProt O60885); experiment: BRD4 (BD2) bromodomain binding, HTRF; settings: 2 h incubation at r.t.
T1 construct: Each member comprises two tandem bromodomains (BD1 and BD2) for recognizing the acetylated lysine residues

MV-4-11 cells = experiment: Inhibitory effect on MV-4-11 cells (CellTiter-Glo); assay type: cell-based; settings: Homo sapiens, read-out: MV-4-11
Protocol: The 1st Day: Seed the Cells on the Plate
1. The cells were verified that they were in good conditions by observation under microscope;
2. The cells were transferred to a 15 mL centrifuge tube, after centrifuged at 1000 rpm for 5 min, the supernatant was discarded;
3. The complete medium (IMDM+10% FBS) was added, then blown and patted into single cell suspension, counted by Vi-cell cytometer, the cell suspension was adjusted to desired cell density by the complete medium.
4. The cells were inoculated into a 96 well plate, the cell number was 15000/well at 100 μL per well, 100 μL complete medium was added into the black control.
5. 37° C., 5% CO2 culture overnight.
The 2nd Day: Addition of the Drugs
1. 1000× Compound Plate Preparation
1.1. The test compound was prepared into 10 mM working solution by using DMSO. Then the STS was prepared into 2 mM working solution by using DMSO.
1.2. In the round bottom 96 wells plate, the column 2 of row A to H was added into 60 μL 10 mM test compound (or STS) working solution, columns 3-11 were added into 40 μL DMSO, 20 μL drug solution was pipetted from the column 2 to the column 3, blown and patted for a homogeneous mixture; then 20 μL solution was pipetted from the column 3 to the column 4, blown and patted for a homogeneous mixture, sequently, the drug was diluted by 3 times, 10 concentrations in total. The columns 1 and 12 were supplemented with 40 μL of DMSO.
2. Intermediate plate areparation
A sterile V-bottom 96 deep well plate was used and in each well, 495 μL FBS-free PRMI 1640 medium was added, then 5 μL of the diluted compound (or DMSO) in the 1000× compound plate was pipetted into corresponding position of the V-bottom 96 well plate, blown and patted evenly.
3.1. The cell plate was taken out from the incubator and was observed under microscope. The diluted compound or DMSO in the intermediate plate was added into the cell plate, 11 μL each well.
3.2. The cell was continued to be cultured at 37° C., 5% CO2 for 72 hours.
The 5th Day: CellTiter-Glo Detection of the Cell Activity
1. The CellTiter-Glo buffer and the reaction substrate were taken out from the refrigerator, after balanced to r.t., the buffer was poured into a brown bottle containing the substrate, the bottle was upside down to have the substrate powder sufficientaly dissolved.
2. The cell was observed under microscope; the cell plate was balanced to r.t.
3. The prepared CellTiter-Glo was added into the 96 well plate, at 100 μL/well.
4. The cell plate was placed on a shaker for 10 min, followed by standing at r.t. for 10 min.
5. A white seal film was attached to the bottom of the well plate, and the chemiluminescence signal of each well was detected by the Enspire microplate detector.
6. XLfit was used for data processing. Inhibition rate %=(d−c)/(d−b)×100, while d is the signal value of the DMSO treated group, c is the signal value of the compound treated group, b is signal value of the blank control that only containing medium and DMSO without cells. The data was fitted using the f(x)205[fit=(A+((B−A)/(1+((C/x)^∧D))))] equation in the XLfit software.

BRD4 (BD1) = target: T2, BRD4 (BD1) (Homo sapiens, UniProt O60885); experiment: BRD4 (BD1) bromodomain binding, HTRF; settings: 2 h incubation at r.t.
T2 construct: Each member comprises two tandem bromodomains (BD1 and BD2) for recognizing the acetylated lysine residues

[1] = MV4-11, 72 hours, CellTiter-Glo

pIC50 (BRD4 (BD2)): 9.00
pIC50 (MV-4-11 cells; [1]): 8.40
pIC50 (BRD4 (BD1)): 8.70
Compound: CCS(=O)(=O)Cc1cc2c(cc1F)C(c1ccc(F)cc1)=N[C@@H](C)c1cc(=O)n(C)cc1-2 [Compound 4085, (S)-10-((ethylsulfonyl)methyl)-9-fluoro-7-(4-flurophenyl)-2,5-dimethyl-2,5-dihydro-3H-benzo[c]pyrido[3,4-e]azepin-3-ketone]

pIC50 (BRD4 (BD2)): 9.00
pIC50 (MV-4-11 cells; [1]): 9.00
pIC50 (BRD4 (BD1)): 8.70
Compound: CCS(=O)(=O)Nc1ccc2c(c1)-c1cn(C)c(=O)cc1[C@H](C)N=C2c1ccc(F)cc1 [Compound 4049, (S)—N-(7-(4-flurophenyl)-2,5-dimethyl-3-oxo-3,5-dihydro-2H-benzo[c]pyrido[3,4-e]azepin-10-yl)ethylsulfonamide]

pIC50 (BRD4 (BD2)): 9.40
pIC50 (MV-4-11 cells; [1]): 9.40
pIC50 (BRD4 (BD1)): 9.00
Compound: CCS(=O)(=O)Nc1cc2c(cc1Cl)C(c1ccc(F)cc1)=N[C@@H](C1CC1)c1cc(=O)n(C)cc1-2 [Compound 4077, (S)—N-(9-chloro-5-cyclopropyl-7-(4-flurophenyl)-2-methyl-3-oxo-3,5-dihydro-2H-benzo[c]pyrido[3,4-e]azepin-10-yl)ethylsulfonamide]

pIC50 (BRD4 (BD2)): 9.00
pIC50 (MV-4-11 cells; [1]): 7.59
pIC50 (BRD4 (BD1)): 8.40
Compound: CCS(=O)(=O)Cc1ccc2c(c1)-c1cn(C)c(=O)cc1[C@H](C)N=C2c1ccc(F)cc1OC [Compound 4087, (S)-10-((ethylsulfonyl)methyl)-7-(4-fluoro-2-methoxylphenyl)-2,5-dimethyl-2,5-dihydro-3H-benzo[c]pyrido[3,4-e]azepin-3-ketone]

pIC50 (BRD4 (BD2)): 9.00
pIC50 (MV-4-11 cells; [1]): 9.00
pIC50 (BRD4 (BD1)): 9.00
Compound: CCS(=O)(=O)Nc1cc2c(cc1F)C(c1ccc(F)cc1)=N[C@@H](C)c1cc(=O)n(C)cc1-2 [Compound 4055, (S)—N-(9-fluoro-7-(4-flurophenyl)-2,5-dimethyl-3-oxo-3,5-dihydro-2H-benzo[c]pyrido[3,4-e]azepin-10-yl)ethylsulfonamide]

pIC50 (BRD4 (BD2)): 9.00
pIC50 (MV-4-11 cells; [1]): 8.52
pIC50 (BRD4 (BD1)): 8.70
Compound: C[C@@H]1N=C(c2ccc(F)cc2)c2cc(Cl)c(NS(=O)(=O)C3CC3)cc2-c2cn(C)c(=O)cc21 [Compound 4080, (S)—N-(9-chloro-7-(4-flurophenyl)-2,5-dimethyl-3-oxo-3,5-dihydro-2H-benzo[c]pyrido[3,4-e]azepin-10-yl)cyclopropylsulfamide]

pIC50 (BRD4 (BD2)): 9.30
pIC50 (MV-4-11 cells; [1]): 9.00
pIC50 (BRD4 (BD1)): 9.00
Compound: CCS(=O)(=O)Nc1cc2c(cc1Cl)C(c1ccc(Cl)cc1)=N[C@@H](C)c1cc(=O)n(C)cc1-2 [Compound 4068, (S)—N-(9-chloro-7-(4-chlorophenyl)-2,5-dimethyl-3-oxo-3,5-dihydro-2H-benzo[c]pyrido[3,4-e]azepin-10-yl)ethylsulfonamide]

pIC50 (BRD4 (BD2)): 9.00
pIC50 (MV-4-11 cells; [1]): 9.40
pIC50 (BRD4 (BD1)): 9.00
Compound: CC[C@@H]1N=C(c2ccc(F)cc2)c2cc(F)c(NS(=O)(=O)CC)cc2-c2cn(C)c(=O)cc21 [Compound 4066, (S)—N-(5-ethyl-9-fluoro-7-(4-flurophenyl)-2-methyl-3-oxo-3,5-dihydro-2H-benzo[c]pyrido[3,4-e]azepin-10-yl)ethylsulfonamide]

pIC50 (BRD4 (BD2)): 8.52
pIC50 (MV-4-11 cells; [1]): 7.38
pIC50 (BRD4 (BD1)): 8.30
Compound: CCNC(=O)Nc1ccc2c(c1)-c1cn(C)c(=O)cc1[C@H](C)N=C2c1ccc(F)cc1 [Compound 4051, (S)-1-ethyl-3-(7-(4-flurophenyl)-2,5-dimethyl-3-oxo-3,5-dihydro-2H-benzo[c]pyrido[3,4-e]azepin-10-yl)urea]

pIC50 (BRD4 (BD2)): 9.00
pIC50 (MV-4-11 cells; [1]): 7.72
pIC50 (BRD4 (BD1)): 8.70
Compound: CCS(=O)(=O)Cc1ccc2c(c1)-c1cn(C)c(=O)cc1[C@H](C(C)C)N=C2c1ccc(F)cc1 [Compound 4060, (S)-10-((ethylsulfonyl)methyl)-7-(4-flurophenyl)-5-isopropyl-2-methyl-2,5-dihydro-3H-benzo[c]pyrido[3,4-e]azepin-3-ketone]

pIC50 (BRD4 (BD2)): 9.00
pIC50 (MV-4-11 cells; [1]): 9.00
pIC50 (BRD4 (BD1)): 9.00
Compound: CCS(=O)(=O)Nc1cc2c(cc1F)C(c1ccc(Cl)cc1)=N[C@@H](C)c1cc(=O)n(C)cc1-2 [Compound 4062, (S)—N-(7-(4-chlorophenyl)-9-fluoro-2,5-dimethyl-3-oxo-3,5-dihydro-2H-benzo[c]pyrido[3,4-e]azepin-10-yl)ethylsulfonamide]

pIC50 (BRD4 (BD2)): 9.00
pIC50 (MV-4-11 cells; [1]): 8.10
pIC50 (BRD4 (BD1)): 8.70
Compound: CCS(=O)(=O)Cc1ccc2c(c1)-c1cn(C)c(=O)cc1[C@H](C)N=C2c1ccc(F)c(O)c1 [Compound 4064, (S)-10-((ethylsulfonyl)methyl)-7-(4-fluoro-3-hydroxylphenyl)-2,5-dimethyl-2,5-dihydro-3H-benzo[c]pyrido[3,4-e]azepin-3-ketone]

pIC50 (BRD4 (BD2)): 9.00
pIC50 (MV-4-11 cells; [1]): 7.59
pIC50 (BRD4 (BD1)): 8.52
Compound: CCS(=O)(=O)Cc1ccc2c(c1)-c1cn(C)c(=O)cc1[C@H](CCO)N=C2c1ccc(F)cc1 [Compound 4088, (S)-10-((ethylsulfonyl)methyl)-7-(4-flurophenyl)-5-(2-hydroxyethyl)-2-methyl-2,5-dihydro-3H-benzo[c]pyrido[3,4-e]azepin-3-ketone]

Continued, compound first:

Compound: CCS(=O)(=O)Cc1ccc2c(c1)-c1cn(C)c(=O)cc1[C@@H](C)N=C2c1ccc(F)cc1 [Compound 4033, (R)-10-((ethylsulfone)methyl)-7-(4-fluorophenyl)-2,5-dimethyl-2,5-dihydro-3H-benzo[c]pyrido[3,4-e]azepin-3-ketone]
pIC50 (BRD4 (BD2)): 6.84
pIC50 (MV-4-11 cells; [1]): 6.01
pIC50 (BRD4 (BD1)): 6.47

Compound: Cn1cc2c(cc1=O)[C@H](CC(N)=O)N=C(c1ccc(Cl)cc1)c1ncccc1-2 [Compound 4029, (S)-2-(7-(4-chlorophenyl)-2-methyl-3-oxo-3,5-dihydro-2H-dipyrido[2,3-c:3′,4′-e]azepin-5-yl)acetamide]
pIC50 (BRD4 (BD2)): 8.70
pIC50 (MV-4-11 cells; [1]): 7.16
pIC50 (BRD4 (BD1)): 8.22

Compound: CCS(=O)(=O)Cc1ccc2c(c1)-c1cn(C)c(=O)cc1[C@H](C1CC1)N=C2c1ccc(F)cc1 [Compound 4042, (S)-5-cyclopropyl-10-((ethylsulfonyl)methyl)-7-(4-flurophenyl)-2-methyl-2,5-dihydro-3H-benzo[c]pyrido[3,4-e]azepin-3-ketone]
pIC50 (BRD4 (BD2)): 9.00
pIC50 (MV-4-11 cells; [1]): 8.15
pIC50 (BRD4 (BD1)): 9.00

Compound: CC[S+]([O-])Cc1ccc2c(c1)-c1cn(C)c(=O)cc1[C@H](C)N=C2c1ccc(F)cc1 (stereo partly drawn) [Compound 4048, (5S)-10-((ethylsulfoxide)methyl)-7-(4-flurophenyl)-2,5-dimethyl-2,5-dihydro-3H-benzo[c]pyrido[3,4-e]azepin-3-ketone]
pIC50 (BRD4 (BD2)): 8.70
pIC50 (MV-4-11 cells; [1]): 7.55
pIC50 (BRD4 (BD1)): 8.70

Compound: CCNC(=O)C[C@@H]1N=C(c2ccc(F)cc2)c2ccc(CS(C)(=O)=O)cc2-c2cn(C)c(=O)cc21 [Compound 4015, (S)—N-ethyl-2-(7-(4-fluorophenyl)-2-methyl-10-(methylsulfonemethyl)-3-oxo-3,5-dihydro-2H-benzo[c]pyrido[3,4-e]azepin-5-yl)acetamide]
pIC50 (BRD4 (BD2)): 9.00
pIC50 (MV-4-11 cells; [1]): 7.16
pIC50 (BRD4 (BD1)): 8.70

Compound: Cn1cc2c(cc1=O)CN=C(c1ccc(Cl)cc1)c1ccccc1-2 [Compound 4010, 7-(4-chlorophenyl)-2-methyl-2H-benzo[c]pyrido[3,4-e]azepin-3(5H)-ketone]
pIC50 (BRD4 (BD2)): 7.37
pIC50 (MV-4-11 cells; [1]): 6.20
pIC50 (BRD4 (BD1)): 7.52

Compound: CCS(=O)(=O)Nc1cc2c(cc1Cl)C(c1ccc(F)cc1)=N[C@@H](C)c1cc(=O)n(C)cc1-2 [Compound 4058]
pIC50 (BRD4 (BD2)): 9.00
pIC50 (MV-4-11 cells; MV4-11, 72 h): 9.00
pIC50 (BRD4 (BD1)): 9.00

Compound: CCS(=O)(=O)Cc1ccc2c(c1)-c1cn(C)c(=O)cc1[C@H](C)N=C2c1ccc(Cl)cc1 [Compound 4037, (S)-10-((ethylsulfonyl)methyl)-7-(4-chlorophenyl)-2,5-dimethyl-2,5-dihydro-3H-benzo[c]pyrido[3,4-e]azepin-3-ketone]
pIC50 (BRD4 (BD2)): 9.00
pIC50 (MV-4-11 cells; [1]): 8.22
pIC50 (BRD4 (BD1)): 8.70

Compound: COc1ccc2c(c1)-c1cn(C)c(=O)cc1CN=C2c1ccc(F)cc1 [Compound 4019, 7-(4-fluorophenyl)-10-methoxy-2-methyl-2,5-dihydro-3H-benzo[c]pyrido[3,4-e]azepin-3-one]
pIC50 (BRD4 (BD2)): 7.43
pIC50 (MV-4-11 cells; [1]): 6.84
pIC50 (BRD4 (BD1)): 8.00

Compound: C[C@@H]1N=C(c2ccc(F)cc2)c2cc(F)c(N)cc2-c2cn(C)c(=O)cc21 [Compound 4070, (S)-10-amino-9-fluoro-7-(4-flurophenyl)-2,5-dimethyl-2,5-dihydro-3H-benzo[c]pyrido[3,4-e]azepin-3-ketone]
pIC50 (BRD4 (BD2)): 8.70
pIC50 (MV-4-11 cells; MV4-11, 72 h): 7.80
pIC50 (BRD4 (BD1)): 8.52

Compound: CC(C)S(=O)(=O)Cc1ccc2c(c1)-c1cn(C)c(=O)cc1[C@H](C)N=C2c1ccc(F)cc1 [Compound 4044, (S)-10-((isopropylsulfone)methyl)-7-(4-flurophenyl)-2,5-dimethyl-2,5-dihydro-3H-benzo[c]pyrido[3,4-e]azepin 3-ketone]
pIC50 (BRD4 (BD2)): 9.00
pIC50 (MV-4-11 cells; [1]): 8.15
pIC50 (BRD4 (BD1)): 9.00

Compound: CC(C)NC(=O)C[C@@H]1N=C(c2ccc(Cl)cc2)c2ccccc2-c2cn(C)c(=O)cc21 [Compound 4032, (S)-2-(7-(4-chlorophenyl)-2-methyl-3-oxo-3,5-dihydro-2H-benzo[c]pyrido[3,4-e]azepin-5-yl)-N-isopropylacetamide]
pIC50 (BRD4 (BD2)): 8.70
pIC50 (MV-4-11 cells; [1]): 8.22
pIC50 (BRD4 (BD1)): 8.52

Compound: COc1ccc2c(c1)C(c1ccc(F)cc1)=NCc1cc(=O)n(C)cc1-2 [Compound 4020, 7-(4-fluorophenyl)-9-methoxy-2-methyl-2,5-dihydro-3H-benzo[c]pyrido[3,4-e]azepin-3-one]
pIC50 (BRD4 (BD2)): 8.00
pIC50 (MV-4-11 cells; [1]): 6.87
pIC50 (BRD4 (BD1)): 7.96

Compound: CCS(=O)(=O)Cc1cc2c(cn1)C(c1ccc(Cl)cc1)=NCc1cc(=O)n(C)cc1-2 [Compound 4027, 7-(4-chlorophenyl)-10-((ethylsulfonyl)methyl)-2-methyl-2,5-dihydro-3H-dipyrido[3,4-c:3′,4′-e]azepin-3-ketone]
pIC50 (BRD4 (BD2)): 8.22
pIC50 (MV-4-11 cells; [1]): 6.89
pIC50 (BRD4 (BD1)): 7.92
